Series [1] in a line: Kinetic Solubility. Particulars: kinetic from dmso stock, 0.2 to 100 μM, BD Gentest Solubility Scanner. Type of series: physicochemical. On the procedure:
The 10 mM DMSO stock solution of the test compound is serially diluted into a 96-well “DMSO stock dilution plate”. Then Pipette 2 μL from the DMSO stock dilution plate into the “Sample plate” and dilute with 198 µL of the assay media to generate the final concentrations of the test compound ranging from 0.2 to 100 μM. The “Sample plate” is run on a BD Gentest Solubility Scanner.

In series [2] the test system is HBV. Description: HBV DNA Quantification Assay. It counts as cell-based. The following applies: Hepatitis B virus, 120 h; HepG2 cell line overexpressing NTCP infected with HBV AD38 viral particles; HBV DNA in culture supernatant after 5 days; geometric mean of a minimum of four determinations; read-out: EC50. The protocol: A HepG2 cell line overexpressing the HBV virus attachment receptor sodium-taurocholate cotransporting polypeptide (NTCP) was grown to confluency in DMEM growth medium, Dulbecco's Modified Eagle Medium without sodium pyruvate (Life Technologies, Rockville, Md.) supplemented with 10% FBS (Thermo Scientific, Waltham, Md.), 1% penicillin/streptomycin (Life Technologies, Rockville, Md.) and 2 mM L-glutamine (Life Technologies, Rockville, Md.) in T175 flasks. Cells were infected with HBV AD38 viral particles (Texcell, Frederick, USA) at 4000 genome equivalents per cell. After allowing viral infection to take place for 4 days, the infected cells were harvested from the flasks by trypsinization, washed twice with OptiMEM (Life Technologies, Rockville, Md.) and re-suspended in DMEM containing 2% FBS and 1% DMSO at a density of 0.25E6 cells/ml. Infected cells were seeded on 384 well collagen coated plates (Greiner, Austria) at a density of 20,000 cells/well containing serially diluted compounds of the present disclosure or DMSO (0.5%) in a final volume of 80 μl. The assay plates were incubated for a period of 5 days and the antiviral activity of the test compounds were assayed by detecting the presence of HBV DNA in the culture supernatant using the QuantiGene™ 2.0 nucleic acid quantification kit (Affymetrix, Santa Clara, Calif.).
The culture supernatant was harvested and treated with lysis buffer containing Proteinase K (Affymetrix, Santa Clara, Calif.). The supernatant was incubated with HBV viral DNA specific probes (Affymetrix, Santa Clara, Calif.) for 30 minutes at 55° C. This was followed by addition of 0.2M NaOH for 30 minutes at room temperature to denature the DNA, followed by addition of Neutralization buffer (Affymetrix, Santa Clara, Calif.). The resulting lysed and neutralized supernatant was then added to QuantiGene™ 2.0 384 well plates coated with capture oligonucleotides and incubated overnight at 55° C. The HBV specific probe set consists of Capture Extender oligonucleotides (CE's) and blocking probes. Following the overnight incubation, the wells were incubated for one hour sequentially with a Pre-Amplifier, Amplifier and Labeled probes conjugated to alkaline phosphatase with a wash step between incubations. After the final wash step, the alkaline phosphatase substrate (Luminol APS5) was added and the resulting luminescence signal was read in an EnVision Multilabel Plate Reader (PerkinElmer, Santa Clara, Calif.). The EC50 values were calculated from the fit of the dose-response curves to a four-parameter equation. All EC50 values represent geometric mean values of a minimum of four determinations.

Where [3] appears, read: aqueous buffer, pH = 7, read-out: Kinetic Solubility at pH = 7.
Where [4] appears, read: simulated gastric fluid, pH = 1, read-out: Kinetic Solubility at pH = 1.

Each structure is given as a SMILES string. In brackets after ≈: the same amount, converted by molar mass. Read-outs that look alike come from different tables or passages of the source. Where only a bound is given, the exact number is not on record here.

`CNC(=O)C1(NC(=O)C(=O)c2c(C)c(C(=O)Nc3ccc(F)c(F)c3)c3n2[C@@H]2C[C@@H]2C3)CC(F)(F)C1` [Example 33]: the kinetic solubility (usually the concentration staying in solution when a stock, usually in DMSO, is diluted into the medium) in series [1] (setting [3]) was 92.3 µM (≈ 46.7 µg/mL); in series [1] (setting [4]), 92.1 µM (≈ 46.6 µg/mL). In addition, in series [2], the EC50 (commonly the concentration needed to bring the measured effect to its halfway point) was found to be 93.6 nM.
Taken in the same sequence, the figures for `Cc1c(C(=O)Nc2cc(F)c(F)c(F)c2)c2n(c1C(=O)C(=O)NC1(c3cn(C)nn3)CC(F)(F)C1)CCC2` [Example 4] were 39.9 µM (≈ 21.4 µg/mL), 43.3 µM (≈ 23.2 µg/mL) and 7.5 nM.
As to `CNC(=O)C1(NC(=O)C(=O)c2c(C)c(C(=O)Nc3ccc(F)c(F)c3)c3n2C[C@@H]2C[C@H]32)CC(F)(F)C1` [Example 22, (1aR,6bS)-4-(2-((3,3-difluoro-1-(methylcarbamoyl)cyclobutyl)amino)-2-oxoacetyl)-N-(3,4-difluorophenyl)-5-methyl-1,1a,2,6b-tetrahydrocyclopropa[a]pyrrolizine-6-carboxamide], the kinetic solubility in series [1] (setting [3]) and in series [1] (setting [4]) was over 100 µM in each case. Besides, in series [2], the EC50 is 31.5 nM.
In the case of `Cc1c(C(=O)Nc2ccc(F)c(C(F)F)c2)c2n(c1C(=O)C(=O)NC1(c3c[nH]nn3)CC1)CCC2` [Example 27, 5-(2-((1-(1H-1,2,3-triazol-4-yl)cyclopropyl)amino)-2-oxoacetyl)-N-(3-(difluoromethyl)-4-fluorophenyl)-6-methyl-2,3-dihydro-1H-pyrrolizine-7-carboxamide], the solubility (kinetic) in series [1] (setting [3]) is 2.7 µM (≈ 1.31 µg/mL); in series [1] (setting [4]), 8.4 µM (≈ 4.09 µg/mL). Further, in series [2], the EC50 worked out at 23 nM.
For `Cc1c(C(=O)Nc2cc(F)c(F)c(F)c2)c2n(c1C(=O)C(=O)NC1(c3nncs3)CC1)CCC2` [Example 29, 5-(2-((1-(1,3,4-thiadiazol-2-yl)cyclopropyl)amino)-2-oxoacetyl)-6-methyl-N-(3,4,5-trifluorophenyl)-2,3-dihydro-1H-pyrrolizine-7-carboxamide], the kinetic solubility in series [1] (setting [3]) is 4.5 µM (≈ 2.2 µg/mL); in series [1] (setting [4]), 88.7 µM (≈ 43.4 µg/mL). Also, in series [2], the EC50 was 14.3 nM.
For `CNC(=O)C1(NC(=O)C(=O)c2c(C)c(C(=O)Nc3ccc(F)c(C(F)F)c3)c3n2CCC3)CC(F)(F)C1` [Example 41], the kinetic solubility in series [1] (setting [3]) and in series [1] (setting [4]) was over 100 µM in each case. Further, the EC50 in series [2] amounted to 20.8 nM.
On to `CNC(=O)C1(NC(=O)C(=O)c2c(C)c(C(=O)Nc3ccc(F)c(F)c3)c3n2C[C@H]2C[C@@H]32)CC(F)(F)C1` [Example 26, (1aS,6bR)-4-(2-((3,3-difluoro-1-(methylcarbamoyl)cyclobutyl)amino)-2-oxoacetyl)-N-(3,4-difluorophenyl)-5-methyl-1,1a,2,6b-tetrahydrocyclopropa[a]pyrrolizine-6-carboxamide], for which the solubility (kinetic) in series [1] (setting [3]) and in series [1] (setting [4]) was over 100 µM throughout. Also, the EC50 in series [2] was found to be 20.6 nM.
In the case of `Cc1c(C(=O)Nc2cc(F)c(F)c(F)c2)c2n(c1C(=O)C(=O)NC1(c3nncs3)CC(F)(F)C1)CCC2` [Example 1, 5-(2-((3,3-difluoro-1-(1,3,4-thiadiazol-2-yl)cyclobutyl)amino)-2-oxoacetyl)-6-methyl-N-(3,4,5-trifluorophenyl)-2,3-dihydro-1H-pyrrolizine-7-carboxamide], the kinetic solubility in series [1] (setting [3]) is 1.7 µM (≈ 0.917 µg/mL); in series [1] (setting [4]) it was under 1 µM. Besides, the EC50 in series [2] was 2.5 nM.
Take `Cc1c(C(=O)Nc2ccc(F)cc2)c2n(c1C(=O)C(=O)NC1(c3cnn[nH]3)CC(F)(F)C1)CCC2` [Example 17, 5-(2-((3,3-difluoro-1-(1H-1,2,3-triazol-4-yl)cyclobutyl)amino)-2-oxoacetyl)-N-(4-fluorophenyl)-6-methyl-2,3-dihydro-H-pyrrolizine-7-carboxamide]: the figures for the kinetic solubility in series [1] (setting [3]) and in series [1] (setting [4]) were 77.8 µM (≈ 37.8 µg/mL) and 70.2 µM (≈ 34.1 µg/mL), respectively. The EC50 in series [2] was 4.1 nM.

Values taken from patent US10836769B2, “Substituted pyrrolizine compounds and uses thereof” (Gilead Sciences, Inc., priority 2018, dated 2020).
